Where “and” joins values, the source holds several entries; their conditions need not be identical. Equal entries are not always repeated. Inconclusive results and toxic doses are left out. No stated cut-off is given here; in the data, active means T/C of 150% or more; inactive means T/C below 125%.
Test system: L1210 leukemia ip in BDF1 mice, survival T/C
Test: NCI In Vivo Anticancer Drug Screen. Data for tumor model L1210 Leukemia (intraperitoneal) in B6D2F1 (BDF1) mice
Details: endpoint: mean survival time, higher = longer survival
Method in brief: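 Survival endpoint. Drug-treated group vs vehicle group, expressed as T divided by C. Tumor passaged by transplantation.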

[1] = dose: 100.0 mg/kg/injection, schedule: Q04DX003 (ip), vehicle: Klucel (hydroxypropylcellulose) (HPC)
[2] = dose: 200.0 mg/kg/injection, schedule: Q04DX003 (ip), vehicle: Klucel (hydroxypropylcellulose) (HPC)
[3] = dose: 400.0 mg/kg/injection, schedule: Q04DX003 (ip), vehicle: Klucel (hydroxypropylcellulose) (HPC)
[4] = dose: 100.0 mg/kg/injection, schedule: Q01DX009 (ip), vehicle: saline with Tween-80
[5] = dose: 100.0 mg/kg/injection, schedule: Q04DX003 (ip), vehicle: saline with Tween-80
[6] = dose: 200.0 mg/kg/injection, schedule: Q01DX009 (ip), vehicle: saline with Tween-80
[7] = dose: 200.0 mg/kg/injection, schedule: Q04DX003 (ip), vehicle: saline with Tween-80
[8] = dose: 50.0 mg/kg/injection, schedule: Q01DX009 (ip), vehicle: saline with Tween-80
[9] = dose: 100.0 mg/kg/injection, schedule: Q01DX009 (ip), vehicle: saline
[10] = dose: 200.0 mg/kg/injection, schedule: Q01DX009 (ip), vehicle: saline

Measured: T/C

CN(C)N=Nc1ccccc1CO
inactive: dose: 1.0 mg/kg/injection, schedule: Q01DX009 (ip), vehicle: other 94 % of control | dose: 2.0 mg/kg/injection, schedule: Q01DX009 (ip), vehicle: other 103 % of control | dose: 4.0 mg/kg/injection, schedule: Q01DX009 (ip), vehicle: other 103 % of control | dose: 8.0 mg/kg/injection, schedule: Q01DX009 (ip), vehicle: other 103 % of control | dose: 25.0 mg/kg/injection, schedule: Q04DX003 (ip), vehicle: other 105 % of control | dose: 50.0 mg/kg/injection, schedule: Q04DX003 (ip), vehicle: other 120 % of control

O=C1Nc2ccccc2C1Cc1cc2c(nn1)[nH]c1ccccc12 (stereo not given)
inactive: dose: 12.5 mg/kg/injection, schedule: Q04DX002 (ip), vehicle: Klucel (hydroxypropylcellulose) (HPC) 95 % of control | dose: 25.0 mg/kg/injection, schedule: Q04DX002 (ip), vehicle: Klucel (hydroxypropylcellulose) (HPC) 106 % of control | dose: 50.0 mg/kg/injection, schedule: Q04DX002 (ip), vehicle: Klucel (hydroxypropylcellulose) (HPC) 103 % of control | dose: 100.0 mg/kg/injection, schedule: Q04DX002 (ip), vehicle: Klucel (hydroxypropylcellulose) (HPC) 122 % of control | dose: 200.0 mg/kg/injection, schedule: Q04DX002 (ip), vehicle: Klucel (hydroxypropylcellulose) (HPC) 96 % of control | dose: 400.0 mg/kg/injection, schedule: Q04DX002 (ip), vehicle: Klucel (hydroxypropylcellulose) (HPC) 92 % of control

CC(=O)O/N=C1\C(C)=[N+]([O-])[N+]([O-])=C1c1ccccc1
inactive: dose: 50.0 mg/kg/injection, schedule: Q01DX009 (ip), vehicle: Klucel (hydroxypropylcellulose) (HPC) 98 % of control | dose: 100.0 mg/kg/injection, schedule: Q01DX009 (ip), vehicle: Klucel (hydroxypropylcellulose) (HPC) 87 % of control | dose: 200.0 mg/kg/injection, schedule: Q01DX009 (ip), vehicle: Klucel (hydroxypropylcellulose) (HPC) 90 % of control

CSc1ncnc2c1nnn2C1CC(CO)C(O)C1O (stereo not given)
inactive: dose: 100.0 mg/kg/injection, schedule: Q01DX001 (ip), vehicle: Klucel (hydroxypropylcellulose) (HPC) 95 % of control | dose: 200.0 mg/kg/injection, schedule: Q01DX001 (ip), vehicle: Klucel (hydroxypropylcellulose) (HPC) 101 % of control | dose: 400.0 mg/kg/injection, schedule: Q01DX001 (ip), vehicle: Klucel (hydroxypropylcellulose) (HPC) 102 % of control

CC(=O)OC1C(C(N)=O)CC(C(=O)O)C1OC(C)=O (stereo not given)
inactive: dose: 100.0 mg/kg/injection, schedule: Q01DX001 (ip), vehicle: saline 112 % of control | dose: 200.0 mg/kg/injection, schedule: Q01DX001 (ip), vehicle: saline 114 % of control | dose: 400.0 mg/kg/injection, schedule: Q01DX001 (ip), vehicle: saline 106 % of control

CC(=O)OC(Cc1nc2ccccc2s1)(C(F)(F)F)C(F)(F)F
inactive: dose: 3.13 mg/kg/injection, schedule: Q04DX002 (ip), vehicle: saline with Tween-80 97 % of control | dose: 6.25 mg/kg/injection, schedule: Q04DX002 (ip), vehicle: saline with Tween-80 91 % of control | dose: 12.5 mg/kg/injection, schedule: Q04DX002 (ip), vehicle: saline with Tween-80 97 % of control | dose: 25.0 mg/kg/injection, schedule: Q04DX002 (ip), vehicle: saline with Tween-80 94 % of control

Nc1[nH]c(=S)ncc1-c1ccc(Cl)c(Cl)c1
inactive: [1] 101 % of control | [2] 97 % of control | [3] 93 % of control

O=C(O)CCC(NC(=O)OCc1ccccc1)C(=O)O (stereo not given)
inactive: [4] 100 % of control | [1] 103 % of control | dose: 100.0 mg/kg/injection, schedule: Q04DX003 (ip), vehicle: other 98 % of control | [5] 104 % of control and 95 % of control | [6] 98 % of control | [2] 99 % of control | dose: 200.0 mg/kg/injection, schedule: Q04DX003 (ip), vehicle: other 102 % of control | [7] 101 % of control and 92 % of control | dose: 400.0 mg/kg/injection, schedule: Q01DX009 (ip), vehicle: saline with Tween-80 98 % of control | [3] 91 % of control | dose: 400.0 mg/kg/injection, schedule: Q04DX003 (ip), vehicle: other 98 % of control | dose: 400.0 mg/kg/injection, schedule: Q04DX003 (ip), vehicle: saline with Tween-80 101 % of control and 104 % of control

CCCCC(CC)C1NCCO1 (stereo not given)
inactive: [8] 87 % of control | [4] 100 % of control | [5] 105 % of control | [6] 93 % of control | [7] 86 % of control

C=Cc1ccccn1
inactive: dose: 75.0 mg/kg/injection, schedule: Q01DX001 (ip), vehicle: saline 98 % of control | dose: 150.0 mg/kg/injection, schedule: Q01DX001 (ip), vehicle: saline 102 % of control | dose: 300.0 mg/kg/injection, schedule: Q01DX001 (ip), vehicle: saline 97 % of control

CC(C)NCCNc1ccnc2cc(Cl)ccc12
inactive: dose: 10.0 mg/kg/injection, schedule: Q01DX001 (ip), vehicle: saline 94 % of control | dose: 20.0 mg/kg/injection, schedule: Q01DX001 (ip), vehicle: saline 98 % of control | dose: 40.0 mg/kg/injection, schedule: Q01DX001 (ip), vehicle: saline 96 % of control

O=C(N/N=C/c1cccc([N+](=O)[O-])c1)c1ccc(Cl)cc1
inactive: [8] 96 % of control | [4] 89 % of control | [6] 89 % of control

C=CCNP(=O)(OCC)OCC
inactive: dose: 12.5 mg/kg/injection, schedule: Q01DX009 (ip), vehicle: saline 101 % of control | dose: 12.5 mg/kg/injection, schedule: Q04DX003 (ip), vehicle: saline 104 % of control | dose: 25.0 mg/kg/injection, schedule: Q01DX009 (ip), vehicle: saline 87 % of control | dose: 25.0 mg/kg/injection, schedule: Q04DX003 (ip), vehicle: saline 104 % of control | dose: 50.0 mg/kg/injection, schedule: Q04DX003 (ip), vehicle: saline 104 % of control | [9] 104 % of control | dose: 100.0 mg/kg/injection, schedule: Q04DX003 (ip), vehicle: saline 101 % of control | [10] 109 % of control | dose: 200.0 mg/kg/injection, schedule: Q04DX003 (ip), vehicle: saline 115 % of control

O=C(Nc1cc(C(F)(F)F)ccc1Cl)c1cccc(C(=O)Nc2cc(C(F)(F)F)ccc2Cl)c1
inactive: dose: 12.5 mg/kg/injection, schedule: Q04DX003 (ip), vehicle: saline with Tween-80 93 % of control | dose: 25.0 mg/kg/injection, schedule: Q04DX003 (ip), vehicle: saline with Tween-80 96 % of control | dose: 50.0 mg/kg/injection, schedule: Q04DX003 (ip), vehicle: saline with Tween-80 95 % of control | [7] 87 % of control

C[N+](C)(C)Cc1ccc2ccccc2c1Br
inactive: dose: 50.0 mg/kg/injection, schedule: Q01DX001 (ip), vehicle: saline 97 % of control

C[N+]1(CCCl)CC[N+](C)(CCCl)CC1 (stereo not given)
inactive: dose: 100.0 mg/kg/injection, schedule: Q01DX001 (ip), vehicle: carboxymethylcellulose (CMC) 101 % of control | dose: 100.0 mg/kg/injection, schedule: Q01DX009 (ip), vehicle: carboxymethylcellulose (CMC) 97 % of control and 92 % of control | [9] 97 % of control | dose: 100.0 mg/kg/injection, schedule: Q04DX002 (ip), vehicle: carboxymethylcellulose (CMC) 97 % of control | dose: 100.0 mg/kg/injection, schedule: Q04DX002 (ip), vehicle: saline 112 % of control | dose: 100.0 mg/kg/injection, schedule: Q04DX003 (ip), vehicle: carboxymethylcellulose (CMC) 97 % of control | dose: 200.0 mg/kg/injection, schedule: Q01DX001 (ip), vehicle: carboxymethylcellulose (CMC) 105 % of control | dose: 200.0 mg/kg/injection, schedule: Q01DX009 (ip), vehicle: carboxymethylcellulose (CMC) 97 % of control and 100 % of control | [10] 101 % of control | dose: 200.0 mg/kg/injection, schedule: Q04DX002 (ip), vehicle: carboxymethylcellulose (CMC) 100 % of control and 103 % of control | dose: 200.0 mg/kg/injection, schedule: Q04DX002 (ip), vehicle: saline 105 % of control | dose: 200.0 mg/kg/injection, schedule: Q04DX003 (ip), vehicle: carboxymethylcellulose (CMC) 100 % of control | dose: 400.0 mg/kg/injection, schedule: Q01DX001 (ip), vehicle: carboxymethylcellulose (CMC) 97 % of control | dose: 400.0 mg/kg/injection, schedule: Q01DX009 (ip), vehicle: carboxymethylcellulose (CMC) 101 % of control and 91 % of control | dose: 400.0 mg/kg/injection, schedule: Q01DX009 (ip), vehicle: saline 101 % of control | dose: 400.0 mg/kg/injection, schedule: Q04DX002 (ip), vehicle: carboxymethylcellulose (CMC) 93 % of control | dose: 400.0 mg/kg/injection, schedule: Q04DX003 (ip), vehicle: carboxymethylcellulose (CMC) 103 % of control

— PubChem BioAssay AID248 (DTP/NCI, 2004)
